Laboratory results as given in patent US20170304306A1, “SELECTIVE NaV1.7 INHIBITORS FOR THE TREATMENT OF DIABETES” (CHROMOCELL CORPORATION, priority 2014, published 2017).

Legend:
NaV1.3 [1] = biological target: T1, NaV1.3 (Homo sapiens, UniProt Q9NY46); test: Patchliner electrophysiological in-vitro assay, NaV1.3; assay type: cell-based; parameters: expressed in transfected cells; host or cells: CHO; details: Patchliner patch clamp, CHO cells; read-out: NaV 1.3 IC50
Experimental: (§1) In vitro assays were performed in recombinant cell line that stably express a heterotrimeric protein of interest from an introduced nucleic acid encoding the alpha subunit (hNav1.7, SCN9A), the beta subunit (SCNB1) and the beta subunit (SCNB2). The cell line was engineered using Human Embryonic Kidney 293 cells (HEK293) as host background. Additional cell lines stably expressing recombinant human NaVs (e.g., NaV1.1, NaV1.2, NaV1.3, NaV1.4, NaV1.5, NaV1.6, NaV1.7 or NaV1.8) alpha subunit alone or in combination with various beta subunits in Chinese Hamster Ovary (CHO) or HEK293 cells as a host background can also be used in in vitro assays.
(§2) The recording of sodium current from stable HEK293 cell lines expressing NaV1.7 or NaV1.5 or CHO cell lines expressing NaV1.1, NaV1.2, NaV1.3, NaV1.4, NaV1.6 or NaV1.8 was done on a Patchliner® instrument, Nanion Technologies. […]
(§3) Voltage protocols were designed to establish: 1) peak current amplitude (Imax), 2) test potential (Vmax) and 3) half-inactivation potential (V1/2) for each of the eight individual cells. […] To estimate test compound affinity to the inactivated state of sodium channel (Ki), the holding potential for each cell was set automatically to the V1/2 calculated from a steady-state inactivation data. […] The dose-dependent inhibition was analyzed using Nanion's Data Analysis Package.

NaV1.1 = biological target: T2, NaV1.1 (Homo sapiens, UniProt P35498); test: Patchliner electrophysiological in-vitro assay, NaV1.1; assay type: cell-based; details: Patchliner patch clamp, CHO cells
T2 construct: expressed in transfected cells; host or cells: CHO
Experimental: as §1, §2, §3

NaV1.8 = biological target: T3, NaV1.8 (Homo sapiens, UniProt Q9Y5Y9); test: Patchliner electrophysiological in-vitro assay, NaV1.8; assay type: cell-based; details: Patchliner patch clamp, CHO cells
T3 construct: expressed in transfected cells; host or cells: CHO
Experimental: as §1, §2, §3

NaV1.4 = biological target: T4, NaV1.4 (Homo sapiens, UniProt P35499); test: Patchliner electrophysiological in-vitro assay, NaV1.4; assay type: cell-based; details: Patchliner patch clamp, CHO cells
T4 construct: expressed in transfected cells; host or cells: CHO
Experimental: as §1, §2, §3

NaV1.5 = biological target: T5, NaV1.5 (Homo sapiens, UniProt Q14524); test: Patchliner electrophysiological in-vitro assay, NaV1.5; assay type: cell-based; details: Patchliner patch clamp, HEK293 cells
T5 construct: expressed in transfected cells; host or cells: HEK293
Experimental: as §1
The recording of sodium current from stable HEK293 cell lines expressing NaV1.7 or NaV1.5 or CHO cell lines expressing NaV1.1, NaV1.2, NaV1.3, NaV1.4, NaV1.6 or NaV1.8 was done on a Patchliner® instrument, Nanion Technologies. The Patchliner® is a fully automated bench-top patch clamp platform and can record simultaneously from up to eight single cells with GΩ seals.
For patch-clamp experiments, cells were grown under standard culturing conditions in Dulbecco's Modified Eagles medium supplemented with 10% fetal bovine serum, glutamine and HEPES. Cells were harvested and kept in suspension for up to 4 hours with no significant change in quality or ability to patch. Whole cell patch clamp recordings were conducted according to Nanion's standard procedure for the Patchliner®. Experiments were conducted at room temperature.
Voltage protocols were designed to establish: 1) peak current amplitude (Imax), 2) test potential (Vmax) and 3) half-inactivation potential (V1/2) for each of the eight individual cells. To determine V1/2, a standard steady-state inactivation protocol was executed using a series of fifteen 500 ms depolarizing pre-pulses in 10 mV increments (starting at −130 mV) and immediately followed by a 10 ms test pulse to Vmax. To estimate test compound affinity to the inactivated state of sodium channel (Ki), the holding potential for each cell was set automatically to the V1/2 calculated from a steady-state inactivation data. The current was activated with the following voltage protocol: holding at V1/2 for 2-5 seconds, return to the −120 mV for 5-10 ms to relieve fast inactivation, stepping to test potential (Vmax) for 10-20 ms. This voltage protocol was repeated every 10 seconds to establish the baseline with 2-3 buffer additions followed by the test compound addition. The dose-dependent inhibition was analyzed using Nanion's Data Analysis Package.

NaV1.3 [2] = biological target: T1, NaV1.3; test: Assay similar to Patchliner assay using CHO or HEK293 cell lines expressing NaV1.3; assay type: cell-based; parameters: expressed in transfected cells; host or cells: CHO or HEK293
[3] = test system: streptozotocin-induced diabetic rats; test: Anti-diabetic effect in rat streptozotocin-induced model for diabetes; assay type: in vivo, Sprague-Dawley rats; details: STZ diabetic rats
Experimental: 250-350 g male Sprague-Dawley rats from appropriate animal resources were used. Type I diabetes was induced by a single injection, (intraperitoneally, intravenously or intramuscularly) of 50-100 mg/kg of streptozotocin (STZ, Sigma Chemicals, St. Louis, Mo. or VWR) freshly dissolved in sodium citrate (0.01 M, pH 4.5). Sham animals were given either saline or same vehicle injection. Following a wait time of about two days, inducement of diabetes was confirmed in STZ-injected rats by measuring the plasma glucose concentrations in blood samples from the tail vein after a fast of 6 hours. The glucose level was assayed using a mini glucose monitor (kit for AlphaTRAK 2 meter, available from Abbott Laboratories). Screening for hyperglycemia in STZ-injected animals was done, with only animals with a final blood glucose level ≧300 mg/dl being selected for the study. Glucose levels in the sham animals remained normal. Other parameters (water intake, food intake, and bodyweight) were monitored before the treatment with a test compound and after the cessation of the treatment.
The baseline glucose levels, daily food and water intake and behavioral tests (von Frey, paw pressure and plantar tests) were measured for each animal once weekly for 28 weeks, and once every 2-4 weeks for an additional 28-30 weeks. At a selected week (started from week 6) for a compound test, diabetic rats were divided into two test groups: a vehicle control group and a test compound treated group (n=10 each group). A sham group (saline only without STZ i.p. injection, n=10) was added as a normal, non-diabetic control group. To minimize animal stress associated with repeated daily handling, the compound treated diabetic group of animals received the test compound (compound 49) at a daily dose of 60 mg/kg in their drinking water containing 2% PEG600 and 1% glycofurol (the test compound concentration in the drinking water was based on the individual animal's average daily water consumption as determined the pre-dosing period, which averaged 0.1-0.11 mg/ml). The vehicle control group received drinking water containing 2% PEG600 and 1% glycofurol without the test compound. The treatment continued for 9 days. On day 10 drinking water with test compound or vehicle (2% PEG600 and 1% glycofurol) was replaced with plain drinking water in all groups. The monitoring of glucose levels, food and water intake as well as behavior tests continued for additional 28-30 weeks.

NaV1.7 = biological target: T6, NaV1.7 (Homo sapiens, UniProt Q15858); test: Patchliner electrophysiological in-vitro assay, NaV1.7; assay type: cell-based; details: Patchliner patch clamp, HEK293 cells, holding at V1/2
T6 construct: expressed in transfected cells; host or cells: HEK293
Experimental: as §1, §2, §3

hNaV1.7 = biological target: T7, hNaV1.7 (Homo sapiens, UniProt Q15858); test: FDSS membrane potential in-vitro assay; assay type: cell-based; details: HEK293 cells expressing hNaV1.7 α, β1 and β2, veratridine and scorpion venom stimulation, read-out: NaV1.7 IC50
T7 construct: expressed in transfected cells; host or cells: HEK293

[4] = 60 mg/kg/day in drinking water for 9 days, after treatment stopped, continues through week 52

T5 sequence (Q14524 whole entry): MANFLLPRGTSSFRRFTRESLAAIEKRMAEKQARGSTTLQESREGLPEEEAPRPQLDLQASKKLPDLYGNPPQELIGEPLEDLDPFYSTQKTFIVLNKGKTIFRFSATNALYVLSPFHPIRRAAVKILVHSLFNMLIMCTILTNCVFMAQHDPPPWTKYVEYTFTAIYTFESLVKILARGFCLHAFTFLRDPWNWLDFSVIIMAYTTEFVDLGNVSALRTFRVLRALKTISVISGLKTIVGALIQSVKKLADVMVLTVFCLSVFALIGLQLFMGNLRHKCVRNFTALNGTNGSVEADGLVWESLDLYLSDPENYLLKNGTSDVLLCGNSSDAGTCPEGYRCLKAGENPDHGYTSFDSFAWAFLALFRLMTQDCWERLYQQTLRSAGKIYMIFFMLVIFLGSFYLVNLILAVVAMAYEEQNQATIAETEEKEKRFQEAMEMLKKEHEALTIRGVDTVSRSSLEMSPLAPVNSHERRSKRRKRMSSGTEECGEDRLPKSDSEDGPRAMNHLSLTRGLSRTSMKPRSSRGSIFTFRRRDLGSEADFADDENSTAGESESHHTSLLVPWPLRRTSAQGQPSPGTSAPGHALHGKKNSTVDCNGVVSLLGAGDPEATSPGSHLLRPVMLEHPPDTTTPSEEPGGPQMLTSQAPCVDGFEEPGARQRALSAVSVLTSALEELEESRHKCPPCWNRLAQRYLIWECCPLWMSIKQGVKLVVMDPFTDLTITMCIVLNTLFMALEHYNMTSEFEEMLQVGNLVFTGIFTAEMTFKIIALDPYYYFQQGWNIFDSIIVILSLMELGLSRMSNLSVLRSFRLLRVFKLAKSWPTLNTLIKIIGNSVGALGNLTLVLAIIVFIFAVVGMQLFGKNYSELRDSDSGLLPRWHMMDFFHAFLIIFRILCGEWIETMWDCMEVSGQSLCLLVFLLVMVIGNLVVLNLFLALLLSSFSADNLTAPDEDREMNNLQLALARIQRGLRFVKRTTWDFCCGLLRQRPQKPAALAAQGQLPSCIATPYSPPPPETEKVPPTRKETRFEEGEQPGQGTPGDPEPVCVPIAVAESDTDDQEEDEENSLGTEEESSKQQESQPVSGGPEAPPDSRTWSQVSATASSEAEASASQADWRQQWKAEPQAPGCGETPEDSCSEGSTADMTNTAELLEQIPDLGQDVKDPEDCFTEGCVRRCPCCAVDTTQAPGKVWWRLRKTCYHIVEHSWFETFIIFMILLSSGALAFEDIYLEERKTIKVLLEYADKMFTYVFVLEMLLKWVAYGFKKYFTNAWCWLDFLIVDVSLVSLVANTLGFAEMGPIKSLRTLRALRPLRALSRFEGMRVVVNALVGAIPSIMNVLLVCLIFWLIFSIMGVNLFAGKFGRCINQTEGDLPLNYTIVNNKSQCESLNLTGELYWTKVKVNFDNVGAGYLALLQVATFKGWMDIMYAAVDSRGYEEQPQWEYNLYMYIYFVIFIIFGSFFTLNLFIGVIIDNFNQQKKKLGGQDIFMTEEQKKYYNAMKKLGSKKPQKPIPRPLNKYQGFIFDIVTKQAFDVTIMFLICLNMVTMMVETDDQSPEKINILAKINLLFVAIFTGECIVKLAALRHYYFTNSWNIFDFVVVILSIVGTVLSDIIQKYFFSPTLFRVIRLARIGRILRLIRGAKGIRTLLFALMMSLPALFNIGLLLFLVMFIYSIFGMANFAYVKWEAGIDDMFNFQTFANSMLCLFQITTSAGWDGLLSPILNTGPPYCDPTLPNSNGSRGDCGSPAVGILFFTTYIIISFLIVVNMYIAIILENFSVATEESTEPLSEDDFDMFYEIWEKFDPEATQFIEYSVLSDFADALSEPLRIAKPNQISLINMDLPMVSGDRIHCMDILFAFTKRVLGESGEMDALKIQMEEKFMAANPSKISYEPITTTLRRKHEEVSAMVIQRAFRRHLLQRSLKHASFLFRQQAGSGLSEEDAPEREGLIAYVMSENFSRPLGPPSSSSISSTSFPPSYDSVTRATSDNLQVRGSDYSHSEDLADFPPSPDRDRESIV
T4 sequence (P35499 whole entry): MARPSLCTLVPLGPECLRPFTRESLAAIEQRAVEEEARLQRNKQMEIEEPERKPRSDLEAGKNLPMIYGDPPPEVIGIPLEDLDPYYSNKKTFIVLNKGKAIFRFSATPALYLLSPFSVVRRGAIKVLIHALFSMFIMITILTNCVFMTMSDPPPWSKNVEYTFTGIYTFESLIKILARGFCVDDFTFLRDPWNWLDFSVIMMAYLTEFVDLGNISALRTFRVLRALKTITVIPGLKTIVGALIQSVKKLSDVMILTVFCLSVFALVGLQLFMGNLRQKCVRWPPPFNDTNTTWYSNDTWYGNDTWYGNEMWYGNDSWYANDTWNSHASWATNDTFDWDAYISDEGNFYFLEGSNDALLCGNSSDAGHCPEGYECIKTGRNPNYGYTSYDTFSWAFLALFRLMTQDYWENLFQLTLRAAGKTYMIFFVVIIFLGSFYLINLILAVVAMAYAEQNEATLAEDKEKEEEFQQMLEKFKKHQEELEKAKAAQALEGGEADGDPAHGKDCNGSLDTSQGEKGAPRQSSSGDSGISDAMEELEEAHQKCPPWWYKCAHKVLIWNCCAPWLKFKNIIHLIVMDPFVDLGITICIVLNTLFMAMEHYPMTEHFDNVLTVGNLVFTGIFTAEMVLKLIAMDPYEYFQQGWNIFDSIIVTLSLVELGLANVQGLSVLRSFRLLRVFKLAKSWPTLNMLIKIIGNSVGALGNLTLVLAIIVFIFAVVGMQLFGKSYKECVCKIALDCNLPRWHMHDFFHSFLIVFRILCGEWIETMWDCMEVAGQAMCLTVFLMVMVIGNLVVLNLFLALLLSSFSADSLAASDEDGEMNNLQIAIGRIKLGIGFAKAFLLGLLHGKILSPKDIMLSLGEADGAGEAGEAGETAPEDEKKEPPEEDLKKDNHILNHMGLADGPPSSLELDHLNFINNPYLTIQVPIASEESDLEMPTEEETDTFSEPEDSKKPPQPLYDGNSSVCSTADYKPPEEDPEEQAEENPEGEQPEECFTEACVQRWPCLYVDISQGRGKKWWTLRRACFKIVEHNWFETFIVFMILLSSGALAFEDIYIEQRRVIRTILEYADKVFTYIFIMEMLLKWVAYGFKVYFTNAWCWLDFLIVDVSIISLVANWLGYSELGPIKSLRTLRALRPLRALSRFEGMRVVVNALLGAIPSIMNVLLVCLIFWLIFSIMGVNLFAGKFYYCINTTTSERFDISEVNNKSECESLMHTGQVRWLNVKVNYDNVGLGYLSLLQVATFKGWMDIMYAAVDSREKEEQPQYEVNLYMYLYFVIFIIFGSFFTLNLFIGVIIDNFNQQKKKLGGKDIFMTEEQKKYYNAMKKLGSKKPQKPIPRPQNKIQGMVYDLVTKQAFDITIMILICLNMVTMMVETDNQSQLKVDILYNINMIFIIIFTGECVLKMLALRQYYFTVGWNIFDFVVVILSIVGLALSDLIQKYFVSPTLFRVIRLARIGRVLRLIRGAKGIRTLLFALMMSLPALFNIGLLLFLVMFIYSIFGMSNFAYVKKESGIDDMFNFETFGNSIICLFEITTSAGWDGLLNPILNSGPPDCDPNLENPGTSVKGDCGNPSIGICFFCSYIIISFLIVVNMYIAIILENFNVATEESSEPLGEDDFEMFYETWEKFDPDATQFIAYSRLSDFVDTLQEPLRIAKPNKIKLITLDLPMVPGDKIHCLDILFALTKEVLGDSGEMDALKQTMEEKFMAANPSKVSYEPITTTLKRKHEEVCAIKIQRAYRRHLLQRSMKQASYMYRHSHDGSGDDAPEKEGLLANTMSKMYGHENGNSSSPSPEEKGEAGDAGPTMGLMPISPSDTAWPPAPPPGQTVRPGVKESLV

Q: Which results are given for O=C(O)CCNC(=O)c1cc(-c2cc(Cl)ccc2Oc2cc(F)c(S(=O)(=O)Nc3ncns3)cc2Cl)ccn1 [Compound 1, 3-(4-(2-(4-(N-(1,2,4-thiadiazol-5-yl)sulfamoyl)-2-chloro-5-fluorophenoxy)-5-chlorophenyl)picolinamido)propanoic acid]?
A: IC50 (NaV1.3 [1]): > 10 µM; IC50 (NaV1.1): > 10 µM; IC50 (NaV1.8): > 10 µM; IC50 (NaV1.4): > 3 µM

Q: Which IC50 (NaV1.5) does the source give for O=C(O)CCNCCCc1cc(Cl)ccc1Oc1cc(F)c(S(=O)(=O)Nc2nccs2)cc1F [Compound 43, 3-((3-(5-chloro-2-(2,5-difluoro-4-(N-(thiazol-2-yl)sulfamoyl)phenoxy)phenyl)propyl)amino)propanoic acid] here?
A: > 10 µM

Q: How did the IC50 (NaV1.5) turn out when CN(CCCc1cc(Cl)ccc1Oc1cc(F)c(S(=O)(=O)Nc2cscn2)cc1Cl)CC(=O)O [Compound 47, 2-((3-(5-chloro-2-(2-chloro-5-fluoro-4-(N-(thiazol-4-yl)sulfamoyl)phenoxy)phenyl)propyl)(methyl)amino)acetic acid] was run?
A: > 10 µM

Q: Which results are given for NC(=O)CNCCCc1cc(Cl)ccc1Oc1cc(F)c(S(=O)(=O)Nc2cscn2)cc1Cl [Compound 49, 2-((3-(5-chloro-2-(2-chloro-5-fluoro-4-(N-(thiazol-4-yl)sulfamoyl)phenoxy)phenyl)propyl)amino)acetamide]?
A: IC50 (NaV1.3 [2]): > 10 µM; IC50 (NaV1.1): > 10 µM; IC50 (NaV1.8): > 10 µM; IC50 (NaV1.4): > 3 µM; general appearance and/or health ([3]; 60 mg/kg/day for 9 days, after treatment stopped on day 9): improvements in general appearance and/or health; food intake compared to the vehicle control group [3, 4]: significantly reduced; glucose level compared to the vehicle control group [3, 4]: significantly reduced; water intake compared to the vehicle control group [3, 4]: significantly reduced

Q: For C#CCN(CCCc1cc(Cl)ccc1Oc1cc(F)c(S(=O)(=O)Nc2nccs2)cc1Cl)CC(=O)O [Compound 54, 2-((3-(5-chloro-2-(2-chloro-5-fluoro-4-(N-(thiazol-2-yl)sulfamoyl)phenoxy)phenyl)propyl)(prop-2-yn-1-yl)amino)acetic acid], which IC50 (NaV1.5) is on record?
A: > 10 µM

Q: And the IC50 (NaV1.7)?
A: < 0.1 µM

Q: And the IC50 (hNaV1.7)?
A: < 0.1 µM

Q: Which IC50 (NaV1.5) does the source give for CS(=O)(=O)CCNCCCc1cc(Cl)ccc1Oc1cc(F)c(S(=O)(=O)Nc2nccs2)cc1Cl [Compound 59, 5-chloro-4-(4-chloro-2-(3-((2-(methylsulfonyl)ethyl)amino)propyl)phenoxy)-2-fluoro-N-(thiazol-2-yl)benzenesulfonamide] here?
A: > 10 µM

Q: With NC(=O)CNCCCc1ccccc1Oc1cc(F)c(S(=O)(=O)Nc2cscn2)cc1Cl [Compound 60, 2-((3-(2-(2-chloro-5-fluoro-4-(N-(thiazol-4-yl)sulfamoyl)phenoxy)phenyl)propyl)amino)acetamide] as the molecule, how does the IC50 (NaV1.5) read?
A: > 10 µM

Q: Which IC50 (NaV1.5) does the source give for C#CCN(CCCc1cc(Cl)ccc1Oc1cc(F)c(S(=O)(=O)Nc2cscn2)cc1Cl)CC(=O)O [Compound 61, 2-((3-(5-chloro-2-(2-chloro-5-fluoro-4-(N-(thiazol-4-yl)sulfamoyl)phenoxy)phenyl)propyl)(prop-2-yn-1-yl)amino)acetic acid] here?
A: > 10 µM

Q: Which IC50 (NaV1.5) does the source give for C=CCN(CCCc1cc(Cl)ccc1Oc1cc(F)c(S(=O)(=O)Nc2nccs2)cc1Cl)CC(=O)O [Compound 62, 2-(allyl(3-(5-chloro-2-(2-chloro-5-fluoro-4-(N-(thiazol-2-yl)sulfamoyl)phenoxy)phenyl)propyl)amino)acetic acid] here?
A: > 10 µM

Q: NC(=O)CNCCCc1cc(Cl)ccc1Oc1cc(F)c(S(=O)(=O)Nc2nccs2)cc1Cl [Compound 63, 2-((3-(5-chloro-2-(2-chloro-5-fluoro-4-(N-(thiazol-2-yl)sulfamoyl)phenoxy)phenyl)propyl)amino)acetamide] was tested. Which IC50 (NaV1.5) did it give?
A: > 10 µM

Q: For CCCN(CCCc1cc(Cl)ccc1Oc1cc(F)c(S(=O)(=O)Nc2nccs2)cc1Cl)CC(=O)O [Compound 65, 2-((3-(5-chloro-2-(2-chloro-5-fluoro-4-(N-(thiazol-2-yl)sulfamoyl)phenoxy)phenyl)propyl)(propyl)amino)acetic acid], which IC50 (NaV1.5) is on record?
A: > 10 µM

Q: For C#CCN(CCCc1cc(Cl)ccc1Oc1cc(F)c(S(=O)(=O)Nc2nccs2)cc1Cl)CCC(=O)O [Compound 66, 3-((3-(5-chloro-2-(2-chloro-5-fluoro-4-(N-(thiazol-2-yl)sulfamoyl)phenoxy)phenyl)propyl)(prop-2-yn-1-yl)amino)propanoic acid], which IC50 (NaV1.5) is on record?
A: > 10 µM
